Measured values taken from PubChem BioAssay (NCI).
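Cultured in 96-well plates, cells were exposed to test compound for 48 hours across five concentrations. GI50: concentration for 50% inhibition of growth. The concentration for full growth arrest is given as TGI.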

How the values were obtained:
Test in all cases: NCI anticancer screen, dose series, 48 h
[1] = test system: 786-0 renal
[2] = test system: A498 renal
[3] = test system: A549 NSCLC
[4] = test system: ACHN renal
[5] = test system: BT-549 breast
[6] = test system: CAKI-1 renal
[7] = test system: CCRF-CEM leukemia
[8] = test system: COLO 205 colon
[9] = test system: DU-145 prostate
[10] = test system: EKVX NSCLC
[11] = test system: HCC-2998 colon
[12] = test system: HCT-116 colon
[13] = test system: HCT-15 colon
[14] = test system: HL-60(TB) leukemia
[15] = test system: HOP-62 NSCLC
[16] = test system: HOP-92 NSCLC
[17] = test system: HS 578T breast
[18] = test system: HT29 colon
[19] = test system: IGROV1 ovarian
[20] = test system: K-562 leukemia
[21] = test system: KM12 colon
[22] = test system: LOX IMVI melanoma
[23] = test system: M14 melanoma
[24] = test system: MALME-3M melanoma
[25] = test system: MCF7 breast
[26] = test system: MDA-MB-231 breast
[27] = test system: MDA-MB-435
[28] = test system: MOLT-4 leukemia
[29] = test system: NCI-H226 lung
[30] = test system: NCI-H23 lung
[31] = test system: NCI-H460 lung
[32] = test system: NCI-H522 lung
[33] = test system: NCI/ADR-RES ovarian
[34] = test system: OVCAR-3 ovarian
[35] = test system: OVCAR-4 ovarian
[36] = test system: OVCAR-5 ovarian
[37] = test system: OVCAR-8 ovarian
[38] = test system: PC-3 prostate
[39] = test system: RPMI-8226 leukemia
[40] = test system: RXF 393 renal
[41] = test system: SF-268 CNS
[42] = test system: SF-295 CNS
[43] = test system: SF-539 CNS
[44] = test system: SK-MEL-2 melanoma
[45] = test system: SK-MEL-28 melanoma
[46] = test system: SK-MEL-5 melanoma
[47] = test system: SN12C renal
[48] = test system: SNB-19 CNS
[49] = test system: SNB-75 CNS
[50] = test system: SR leukemia
[51] = test system: SW-620 colon
[52] = test system: T-47D breast
[53] = test system: TK-10 renal
[54] = test system: U251 CNS
[55] = test system: UACC-257 melanoma
[56] = test system: UACC-62 melanoma
[57] = test system: UO-31 renal
[58] = test system: SK-OV-3 ovarian

SMILES: O=C(Nc1ccc(Cl)cc1F)c1ccccc1O
- GI50 [1]: 3.44 µM
- TGI [1]: > 100 µM
- GI50 [2]: 2.22 µM
- TGI [2]: 6.29 µM
- GI50 [3]: 3.6 µM
- TGI [3]: > 100 µM
- GI50 [4]: 2.36 µM
- TGI [4]: 7.54 µM
- GI50 [5]: 2.88 µM
- TGI [5]: 9.88 µM
- GI50 [6]: 2.37 µM
- TGI [6]: 13.6 µM
- GI50 [7]: 3.47 µM
- TGI [7]: > 100 µM
- GI50 [8]: 5.7 µM
- TGI [8]: 41.2 µM
- GI50 [9]: 4.13 µM
- TGI [9]: > 100 µM
- GI50 [10]: 1.96 µM
- TGI [10]: 12.5 µM
- GI50 [11]: 3.07 µM
- TGI [11]: 13.1 µM
- GI50 [12]: 3.15 µM
- TGI [12]: 11.3 µM
- GI50 [13]: 1.92 µM
- TGI [13]: 14.2 µM
- GI50 [14]: 2.53 µM
- TGI [14]: 6.16 µM
- GI50 [15]: 2.74 µM
- TGI [15]: 21.7 µM
- GI50 [16]: 1.42 µM
- TGI [16]: 4.59 µM
- GI50 [17]: 2.68 µM
- TGI [17]: 23.2 µM
- GI50 [18]: 5.32 µM
- TGI [18]: 92.9 µM
- GI50 [19]: 1.43 µM
- TGI [19]: 64.3 µM
- GI50 [20]: 3.5 µM
- TGI [20]: > 100 µM
- GI50 [21]: 2.97 µM
- TGI [21]: 20.3 µM
- GI50 [22]: 2.95 µM
- TGI [22]: 10.4 µM
- GI50 [23]: 3.45 µM
- TGI [23]: 16.7 µM
- GI50 [24]: 2.26 µM
- TGI [24]: 8.8 µM
- GI50 [25]: 1.5 µM
- TGI [25]: 12.6 µM
- GI50 [26]: 1.44 µM
- TGI [26]: 3.79 µM
- GI50 [27]: 3.37 µM
- TGI [27]: 30.7 µM
- GI50 [28]: 3.49 µM
- TGI [28]: 13.5 µM
- GI50 [29]: 2.23 µM
- TGI [29]: 8.85 µM
- GI50 [30]: 2.12 µM
- TGI [30]: 6.13 µM
- GI50 [31]: 3.21 µM
- TGI [31]: 19.7 µM
- GI50 [32]: 2.45 µM
- TGI [32]: 30 µM
- GI50 [33]: 2.44 µM
- TGI [33]: 7.61 µM
- GI50 [34]: 2.98 µM
- TGI [34]: > 100 µM
- GI50 [35]: 2.75 µM
- TGI [35]: > 100 µM
- GI50 [36]: 3.04 µM
- TGI [36]: > 100 µM
- GI50 [37]: 3.61 µM
- TGI [37]: > 100 µM
- GI50 [38]: 2.77 µM
- TGI [38]: 10.9 µM
- GI50 [39]: 1.97 µM
- TGI [39]: 7.32 µM
- GI50 [40]: 3.23 µM
- TGI [40]: 11.2 µM
- GI50 [41]: 3.63 µM
- TGI [41]: > 100 µM
- GI50 [42]: 2.35 µM
- TGI [42]: 5.87 µM
- GI50 [43]: 2.94 µM
- TGI [43]: 18.5 µM
- GI50 [44]: 2.3 µM
- TGI [44]: 6.59 µM
- GI50 [45]: 3.9 µM
- TGI [45]: 21.6 µM
- GI50 [46]: 1.69 µM
- TGI [46]: 3.48 µM
- GI50 [47]: 2.24 µM
- TGI [47]: 8.71 µM
- GI50 [48]: 3.23 µM
- TGI [48]: > 100 µM
- GI50 [49]: 3.26 µM
- TGI [49]: > 100 µM
- GI50 [50]: 5.73 µM
- TGI [50]: > 100 µM
- GI50 [51]: 3.26 µM
- TGI [51]: > 100 µM
- GI50 [52]: 2.49 µM
- TGI [52]: > 100 µM
- GI50 [53]: 4.54 µM
- TGI [53]: 47.1 µM
- GI50 [54]: 3.42 µM
- TGI [54]: > 100 µM
- GI50 [55]: 2.9 µM
- TGI [55]: 8.86 µM
- GI50 [56]: 2.08 µM
- TGI [56]: 9.24 µM
- GI50 [57]: 1.25 µM
- TGI [57]: 6.65 µM

SMILES: Cc1cc(I)cc(CN(C)CCCN2CCCCCCC2)c1O
- GI50 [1]: 12.7 µM
- TGI [1]: 26.3 µM
- GI50 [2]: 17.2 µM
- TGI [2]: 32.9 µM
- GI50 [3]: 20.1 µM
- TGI [3]: 45.5 µM
- GI50 [4]: 18.1 µM
- TGI [4]: 32.4 µM
- GI50 [5]: 13.1 µM
- TGI [5]: 26.7 µM
- GI50 [6]: 13.8 µM
- TGI [6]: 28 µM
- GI50 [7]: 6.22 µM
- TGI [7]: 21.9 µM
- GI50 [8]: 17.4 µM
- TGI [8]: 37.1 µM
- GI50 [9]: 17.8 µM
- TGI [9]: 38 µM
- GI50 [10]: 16 µM
- TGI [10]: 37.6 µM
- GI50 [11]: 18.1 µM
- TGI [11]: 36.8 µM
- GI50 [12]: 11.8 µM
- TGI [12]: 28.3 µM
- GI50 [13]: 10.9 µM
- TGI [13]: 23.3 µM
- GI50 [14]: 2.26 µM
- TGI [14]: 7.97 µM
- GI50 [15]: 16.4 µM
- TGI [15]: 32.2 µM
- GI50 [16]: 11.6 µM
- TGI [16]: 29.8 µM
- GI50 [17]: 15.7 µM
- TGI [17]: 33.7 µM
- GI50 [18]: 6.26 µM
- TGI [18]: 21.1 µM
- GI50 [19]: 15.4 µM
- TGI [19]: 32 µM
- GI50 [20]: 2.46 µM
- TGI [20]: 23.8 µM
- GI50 [21]: 14.2 µM
- TGI [21]: 31 µM
- GI50 [22]: 16.2 µM
- TGI [22]: 30.9 µM
- GI50 [23]: 15.5 µM
- TGI [23]: 33.2 µM
- GI50 [24]: 19.5 µM
- TGI [24]: 36.1 µM
- GI50 [25]: 14.2 µM
- TGI [25]: 30.6 µM
- GI50 [26]: 14.9 µM
- TGI [26]: 29.6 µM
- GI50 [27]: 13.2 µM
- TGI [27]: 30.1 µM
- GI50 [28]: 3.7 µM
- TGI [28]: 19.9 µM
- GI50 [29]: 16.3 µM
- TGI [29]: 35 µM
- GI50 [30]: 18.1 µM
- TGI [30]: 48.7 µM
- GI50 [31]: 13.7 µM
- TGI [31]: 28.3 µM
- GI50 [32]: 19.3 µM
- TGI [32]: 38.4 µM
- GI50 [33]: 20.1 µM
- TGI [33]: 45.3 µM
- GI50 [34]: 14.8 µM
- TGI [34]: 29.1 µM
- GI50 [35]: 19.7 µM
- TGI [35]: 58.5 µM
- GI50 [36]: 18.8 µM
- TGI [36]: 41.5 µM
- GI50 [37]: 19.8 µM
- TGI [37]: 43.4 µM
- GI50 [38]: 15.8 µM
- TGI [38]: 32.7 µM
- GI50 [39]: 7.9 µM
- TGI [39]: 24.2 µM
- GI50 [40]: 14.3 µM
- TGI [40]: 35.1 µM
- GI50 [41]: 14.9 µM
- TGI [41]: 31.3 µM
- GI50 [42]: 7.38 µM
- TGI [42]: 23 µM
- GI50 [43]: 15.1 µM
- TGI [43]: 29.2 µM
- GI50 [44]: 21.8 µM
- TGI [44]: 41.7 µM
- GI50 [45]: 15.3 µM
- TGI [45]: 31.2 µM
- GI50 [46]: 6.94 µM
- TGI [46]: 19.4 µM
- GI50 [58]: 18.7 µM
- TGI [58]: 35.9 µM
- GI50 [47]: 18 µM
- TGI [47]: 41.1 µM
- GI50 [48]: 20.4 µM
- TGI [48]: 44.5 µM
- GI50 [49]: 15.4 µM
- TGI [49]: 30.2 µM
- GI50 [50]: 2.11 µM
- TGI [50]: 14.6 µM
- GI50 [51]: 16.2 µM
- TGI [51]: 30.8 µM
- GI50 [52]: 19.6 µM
- TGI [52]: 52.8 µM
- GI50 [53]: 13.4 µM
- TGI [53]: 27 µM
- GI50 [54]: 15 µM
- TGI [54]: 29.2 µM
- GI50 [55]: 16.2 µM
- TGI [55]: 34.3 µM
- GI50 [56]: 6 µM
- TGI [56]: 18 µM
- GI50 [57]: 11.8 µM
- TGI [57]: 26.2 µM
